# Test results from patent publication US9187472B2 (AbbVie Inc., priority 2012, dated 2015).
# Test system: PC3 cells
# Test: NAMPT Cell Proliferation Assay
# Type: cell-based
# Conditions: Homo sapiens, PC-3, 120 h, 5 days incubation, cell viability by Cell Titer Glo
# Outline: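 Cell Titer Glo viability after 5-day exposure (37° C, 5% CO2); PC3, 500 cells/well, RPMI + 10% heat-inactivated FBS, overnight attachment before dosing. Dose range 10 μM to 1×10^−5 μM, 10-fold steps. IC50 = sigmoidal fit of % inhibition.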
row,IC50 [nM],SMILES
1,63.3,"CC(C)(C(=O)N1CCC(c2ccc(C(=O)NCc3ccn4ccnc4c3)s2)CC1)N1CCNCC1 [Example 879, N-(imidazo[1,2-a]pyridin-7-ylmethyl)-5-{1-[2-methyl-2-(piperazin-1-yl)propanoyl]piperidin-4-yl}thiophene-2-carboxamide]"
2,7.13,"COc1cccc(OC)c1C(=O)N1CCC(c2ccc(C(=O)NCc3ccn4ccnc4c3)cc2)CC1 [Example 927, 4-[1-(2,6-dimethoxybenzoyl)piperidin-4-yl]-N-(imidazo[1,2-a]pyridin-7-ylmethyl)benzamide]"
3,994,"O=C(NCc1ccn2ccnc2c1)c1ccc(NC(=O)c2cc(F)ccc2F)cc1 [Example 870, 2,5-difluoro-N-{4-[(imidazo[1,2-a]pyridin-7-ylmethyl)carbamoyl]phenyl}benzamide]"
4,7.78,"Cn1cc2ccc(C(=O)N3CCC(c4ccc(NC(=O)NCc5ccn6ccnc6c5)cc4)CC3)cc2n1 [Example 1151, 1-(imidazo[1,2-a]pyridin-7-ylmethyl)-3-(4-{1-[(2-methyl-2H-indazol-6-yl)carbonyl]piperidin-4-yl}phenyl)urea]"
5,0.194,O=C(NCc1ccn2ccnc2c1)c1ccc(-c2cnn(CC34CC5CC(CC(C5)O3)C4)c2)s1 [Example 886]
6,2.36,"N#Cc1cnc(C(=O)N2CCC(c3ccc(NC(=O)NCc4ccn5ccnc5c4)cc3)CC2)c(Cl)c1 [Example 1126, 1-(4-{1-[(3-chloro-5-cyanopyridin-2-yl)carbonyl]piperidin-4-yl}phenyl)-3-(imidazo[1,2-a]pyridin-7-ylmethyl)urea]"
7,23.1,"CC(C)c1nc(C(=O)N2CCC(c3ccc(C(=O)NCc4ccn5ccnc5c4)cc3)CC2)co1 [Example 1113, N-(imidazo[1,2-a]pyridin-7-ylmethyl)-4-(1-{[2-(propan-2-yl)-1,3-oxazol-4-yl]carbonyl}piperidin-4-yl)benzamide]"
8,4.24,"N#Cc1ccsc1C(=O)N1CCC(c2ccc(C(=O)NCc3ccn4ccnc4c3)cc2)CC1 [Example 1103, 4-{1-[(3-cyanothiophen-2-yl)carbonyl]piperidin-4-yl}-N-(imidazo[1,2-a]pyridin-7-ylmethyl)benzamide]"
9,2.18,"CC(C)(CN1CCNCC1)Cn1cc(-c2ccc(C(=O)NCc3ccn4ccnc4c3)s2)cn1 [Example 1082, 5-{1-[2,2-dimethyl-3-(piperazin-1-yl)propyl]-1H-pyrazol-4-yl}-N-(imidazo[1,2-a]pyridin-7-ylmethyl)thiophene-2-carboxamide]"
10,3.89,"CC1(C(=O)N2CCC(c3ccc(C(=O)NCc4ccc5ncnn5c4)s3)CC2)CC1 [Example 845, 5-{1-[(1-methylcyclopropyl)carbonyl]piperidin-4-yl}-N-([1,2,4]triazolo[1,5-a]pyridin-6-ylmethyl)thiophene-2-carboxamide]"
11,17.4,"CC(C)(C)OC(=O)N1CCC(c2ccc(NC(=O)Cc3ccn4ccnc4c3)cc2)CC1 [Example 900, tert-butyl 4-{4-[(imidazo[1,2-a]pyridin-7-ylacetyl)amino]phenyl}piperidine-1-carboxylate]"
12,28.7,"O=C(NCc1ccn2ccnc2c1)c1ccc(C2CCN(C(=O)C3=Cc4ccccc4OC3)CC2)cc1 [Example 974, 4-[1-(2H-chromen-3-ylcarbonyl)piperidin-4-yl]-N-(imidazo[1,2-a]pyridin-7-ylmethyl)benzamide]"
13,16,"O=C(NCc1ccn2ccnc2c1)Nc1ccc(C2CCN(C(=O)c3cnc4c(c3)CCCO4)CC2)cc1 [Example 1036, 1-{4-[1-(3,4-dihydro-2H-pyrano[2,3-b]pyridin-6-ylcarbonyl)piperidin-4-yl]phenyl}-3-(imidazo[1,2-a]pyridin-7-ylmethyl)urea]"
14,2.04,"CC1(C(=O)N2CCC(c3ccc(C(=O)NCc4cn5ccnc5cn4)c(F)c3)CC2)CC1 [Example 1158, 2-fluoro-N-(imidazo[1,2-a]pyrazin-6-ylmethyl)-4-{1-[(1-methylcyclopropyl)carbonyl]piperidin-4-yl}benzamide]"
15,3.96,"O=C(NCc1ccn2ccnc2c1)c1ccc(C2CCN(C(=O)c3ccn(C4CCCC4)n3)CC2)cc1 [Example 967, 4-{1-[(1-cyclopentyl-1H-pyrazol-3-yl)carbonyl]piperidin-4-yl}-N-(imidazo[1,2-a]pyridin-7-ylmethyl)benzamide]"
16,2.2,"CCCc1c(C(=O)N2CCC(c3ccc(NC(=O)NCc4ccn5ccnc5c4)cc3)CC2)cnn1C [Example 1141, 1-(imidazo[1,2-a]pyridin-7-ylmethyl)-3-(4-{1-[(1-methyl-5-propyl-1H-pyrazol-4-yl)carbonyl]piperidin-4-yl}phenyl)urea]"
17,282,"CC(C)C(=O)N1CCC(c2ccc(NC(=O)NCc3ccn4c(Cl)cnc4c3)cc2)CC1 [Example 904, 1-[(3-chloroimidazo[1,2-a]pyridin-7-yl)methyl]-3-{4-[1-(2-methylpropanoyl)piperidin-4-yl]phenyl}urea]"
18,2.19,"O=C(NCc1ccn2ccnc2c1)Nc1ccc(C2CCN(C(=O)c3cc(Cl)ncc3F)CC2)cc1 [Example 1016, 1-(4-{1-[(2-chloro-5-fluoropyridin-4-yl)carbonyl]piperidin-4-yl}phenyl)-3-(imidazo[1,2-a]pyridin-7-ylmethyl)urea]"

row,IC50 [nM],SMILES
1,81.8,"O=C(NCc1ccn2ccnc2c1)c1ccc(C2CCN(C(=O)c3nc4c(s3)CCCC4)CC2)cc1 [Example 1000, N-(imidazo[1,2-a]pyridin-7-ylmethyl)-4-[1-(4,5,6,7-tetrahydro-1,3-benzothiazol-2-ylcarbonyl)piperidin-4-yl]benzamide]"
2,69.1,"CN(C)C(=O)N1CCC(c2ccc(C(=O)NCc3ccn4ccnc4c3)cc2)CC1 [Example 1077, 4-{4-[(imidazo[1,2-a]pyridin-7-ylmethyl)carbamoyl]phenyl}-N,N-dimethylpiperidine-1-carboxamide]"
3,6.87,"COc1ncccc1/C=C/C(=O)N1CCC(c2ccc(NC(=O)NCc3ccn4ccnc4c3)cc2)CC1 [Example 1039, 1-(imidazo[1,2-a]pyridin-7-ylmethyl)-3-(4-{1-[(2E)-3-(2-methoxypyridin-3-yl)prop-2-enoyl]piperidin-4-yl}phenyl)urea]"
4,1.02,"CCC(CC)C(=O)N1CCC(c2ccc(NC(=O)NCc3ccn4ccnc4c3)cc2)CC1 [Example 942, 1-{4-[1-(2-ethylbutanoyl)piperidin-4-yl]phenyl}-3-(imidazo[1,2-a]pyridin-7-ylmethyl)urea]"
5,7.73,"O=C(NCc1ccn2ccnc2c1)Nc1ccc(C2CCN(C(=O)c3cnnc4ccccc34)CC2)cc1 [Example 1031, 1-{4-[1-(cinnolin-4-ylcarbonyl)piperidin-4-yl]phenyl}-3-(imidazo[1,2-a]pyridin-7-ylmethyl)urea]"
6,3.28,"COc1ccccc1CC(=O)N1CCC(c2ccc(NC(=O)NCc3ccn4ccnc4c3)cc2)CC1 [Example 947, 1-(imidazo[1,2-a]pyridin-7-ylmethyl)-3-(4-{1-[(2-methoxyphenyl)acetyl]piperidin-4-yl}phenyl)urea]"
7,29.2,"O=C(NCc1ccc2ncnn2c1)c1ccc(C2CCN(C(=O)C3CCC(F)(F)CC3)CC2)s1 [Example 848, 5-{1-[(4,4-difluorocyclohexyl)carbonyl]piperidin-4-yl}-N-([1,2,4]triazolo[1,5-a]pyridin-6-ylmethyl)thiophene-2-carboxamide]"
8,2.75,"O=C(NCc1cn2ccnc2cn1)c1ccc(C2CCN(C(=O)CCC(F)(F)F)CC2)s1 [Example 840, N-(imidazo[1,2-a]pyrazin-6-ylmethyl)-5-[1-(4,4,4-trifluorobutanoyl)piperidin-4-yl]thiophene-2-carboxamide]"
9,1.98,"O=C(NCc1ccn2ccnc2c1)Nc1ccc(C2CCN(C(=O)c3ncccc3Cl)CC2)cc1 [Example 1019, 1-(4-{1-[(3-chloropyridin-2-yl)carbonyl]piperidin-4-yl}phenyl)-3-(imidazo[1,2-a]pyridin-7-ylmethyl)urea]"
10,0.22,"CC(C)(C)Cn1cc(-c2ccc(C(=O)NCc3ccn4ccnc4c3)s2)cn1 [Example 883, 5-[1-(2,2-dimethylpropyl)-1H-pyrazol-4-yl]-N-(imidazo[1,2-a]pyridin-7-ylmethyl)thiophene-2-carboxamide]"
11,157,"COc1ccccc1CC(=O)N1CCC(c2ccc(C(=O)NCc3ccn4ccnc4c3)cc2)CC1 [Example 921, N-(imidazo[1,2-a]pyridin-7-ylmethyl)-4-{1-[(2-methoxyphenyl)acetyl]piperidin-4-yl}benzamide]"
12,750,"COc1ccccc1C(=O)Nc1ccc(C(=O)NCc2ccn3ccnc3c2)cc1 [Example 880, N-{4-[(imidazo[1,2-a]pyridin-7-ylmethyl)carbamoyl]phenyl}-2-methoxybenzamide]"
13,3.85,"O=C(NCc1ccn2ccnc2c1)Nc1ccc(C2CCN(C(=O)c3scnc3Cl)CC2)cc1 [Example 1138, 1-(4-{1-[(4-chloro-1,3-thiazol-5-yl)carbonyl]piperidin-4-yl}phenyl)-3-(imidazo[1,2-a]pyridin-7-ylmethyl)urea]"
14,565,"N#Cc1ccc(C(=O)N2CCC(c3ccc(C(=O)NCc4ccn5ccnc5c4)cc3)CC2)s1 [Example 1093, 4-{1-[(5-cyanothiophen-2-yl)carbonyl]piperidin-4-yl}-N-(imidazo[1,2-a]pyridin-7-ylmethyl)benzamide]"
15,77.2,"CC(C)=CC(=O)N1CCC(c2ccc(C(=O)NCc3ccn4ccnc4c3)cc2)CC1 [Example 914, N-(imidazo[1,2-a]pyridin-7-ylmethyl)-4-[1-(3-methylbut-2-enoyl)piperidin-4-yl]benzamide]"
16,4.17,"CC(C)Cc1cc(-c2ccc(C(=O)NCc3ccn4ccnc4c3)s2)n(C)n1 [Example 906, N-(imidazo[1,2-a]pyridin-7-ylmethyl)-5-[1-methyl-3-(2-methylpropyl)-1H-pyrazol-5-yl]thiophene-2-carboxamide]"
17,23.4,"N#Cc1ccc(CC(=O)N2CCC(c3ccc(NC(=O)NCc4ccn5ccnc5c4)cc3)CC2)cc1 [Example 1050, 1-(4-{1-[(4-cyanophenyl)acetyl]piperidin-4-yl}phenyl)-3-(imidazo[1,2-a]pyridin-7-ylmethyl)urea]"
